Data reported in US8546401B2, “5,6-disubstituted oxindole-derivatives and use thereof for treating vasopressin-dependent diseases” (AbbVie Deutschland GmbH & Co. KG, priority 2007, dated 2013).

Legend:
[1] = molecular target: T1, human vasopressin V1b receptor (Homo sapiens, UniProt P47901); test: Vasopressin V1b receptor binding assay; details: CHO-K1 membranes, 3H-AVP displacement
T1 construct: expressed in transfected cells; host or cells: CHO-K1 (cell line hV1b_3H2_CHO), membrane preparation
T1 sequence (P47901 1-424): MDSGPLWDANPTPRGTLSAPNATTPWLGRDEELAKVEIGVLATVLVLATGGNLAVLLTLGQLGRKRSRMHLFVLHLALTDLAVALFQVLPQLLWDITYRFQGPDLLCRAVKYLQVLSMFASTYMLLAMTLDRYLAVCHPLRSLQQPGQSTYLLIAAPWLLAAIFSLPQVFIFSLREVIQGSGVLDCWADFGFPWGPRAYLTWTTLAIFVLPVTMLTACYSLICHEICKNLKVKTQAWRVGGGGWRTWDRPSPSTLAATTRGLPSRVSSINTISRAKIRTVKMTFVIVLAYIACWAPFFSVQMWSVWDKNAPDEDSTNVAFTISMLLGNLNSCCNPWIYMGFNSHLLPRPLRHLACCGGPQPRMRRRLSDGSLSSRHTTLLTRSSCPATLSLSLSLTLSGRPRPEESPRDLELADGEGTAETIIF
In short: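 Membranes (50 μg/ml protein) from CHO-K1 cells stably expressing human V1b were incubated with 1.5 nM ^3H-AVP in 50 mM Tris, 10 mM MgCl2, 0.1% BSA, pH 7.4, for 60 min at room temperature, 2% DMSO final. Bound ligand measured after filtration; Ki derived by nonlinear regression using Kd 0.4 nM.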

[2] = molecular target: T2, human oxytocin receptors (Homo sapiens, UniProt P30559); test: Oxytocin receptor binding assay; details: selectivity quotient
T2 construct: expressed in transfected cells; host or cells: HEK-293, transient expression; lysed and homogenized cells
T2 sequence (P30559 1-389): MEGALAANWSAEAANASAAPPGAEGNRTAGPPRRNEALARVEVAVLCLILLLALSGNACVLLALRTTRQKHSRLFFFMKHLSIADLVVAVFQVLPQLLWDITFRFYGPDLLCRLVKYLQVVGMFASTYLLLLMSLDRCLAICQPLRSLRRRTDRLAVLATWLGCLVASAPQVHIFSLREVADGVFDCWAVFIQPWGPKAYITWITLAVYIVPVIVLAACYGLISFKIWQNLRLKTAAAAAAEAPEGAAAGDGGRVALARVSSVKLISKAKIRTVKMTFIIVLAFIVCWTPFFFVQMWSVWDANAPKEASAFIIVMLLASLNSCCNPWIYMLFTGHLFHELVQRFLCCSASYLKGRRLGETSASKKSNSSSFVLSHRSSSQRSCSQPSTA
In short: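 Membranes from HEK-293 cells transiently expressing human oxytocin receptor, incubated with 3-4 nM ^3H-oxytocin in 50 mM Tris, 10 mM MgCl2, 0.1% BSA, pH 7.4; nonspecific binding with 10^−6 M oxytocin. Filtration and scintillation counting; Ki by nonlinear regression using Kd 7.6 nM.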

[3] = molecular target: T3, human vasopressin V1a receptor (Homo sapiens, UniProt P37288); test: Vasopressin V1a receptor binding assay; details: selectivity quotient, human receptors
T3 construct: expressed in transfected cells; host or cells: CHO-K1 (cell line hV1a_5_CHO), membrane preparation
T3 sequence (P37288 whole entry): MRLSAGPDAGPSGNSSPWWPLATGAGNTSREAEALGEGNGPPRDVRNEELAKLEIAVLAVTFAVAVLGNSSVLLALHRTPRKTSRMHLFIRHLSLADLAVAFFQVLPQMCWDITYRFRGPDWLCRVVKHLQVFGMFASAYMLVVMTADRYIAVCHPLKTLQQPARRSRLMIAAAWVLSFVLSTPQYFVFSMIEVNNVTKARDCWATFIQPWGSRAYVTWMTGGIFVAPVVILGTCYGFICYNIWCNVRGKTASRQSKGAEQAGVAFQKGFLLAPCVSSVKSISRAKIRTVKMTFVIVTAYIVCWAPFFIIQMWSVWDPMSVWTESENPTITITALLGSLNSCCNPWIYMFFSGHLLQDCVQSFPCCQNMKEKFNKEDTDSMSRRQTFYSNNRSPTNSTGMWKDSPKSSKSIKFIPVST
In short: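 Membranes from CHO-K1 cells stably expressing the receptor (hV1a_5_CHO; 20 μg/ml protein) were incubated 60 min at room temperature with 0.04 nM ^125I-AVP and increasing test compound in 50 mM Tris, 10 mM MgCl2, 0.1% BSA, pH 7.4. Nonspecific binding was defined with 1 μM AVP and read by filtration and scintillation. Ki came from nonlinear regression using Kd 1.33 nM.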

| Compound | Ki [1] [nM] | Ki(h − OT)/Ki(h − V1b)* [2] | Ki(h − V1a)/Ki(h − V1b)* [3] |
| --- | --- | --- | --- |
| CCOc1ncccc1C1(NC(=O)N2CCC(N3CCN(C)CC3)CC2)C(=O)N(S(=O)(=O)c2ccc(OC)cc2OC)c2cc(F)c(F)cc21 (stereo not drawn) [Example 35, 4-(4-Methylpiperazin-1-yl)piperidine-1-[1-(2,4-dimethoxyphenylsulfonyl)-3-(2-ethoxy-pyridin-3-yl)-5,6-difluoro-2-oxo-2,3-dihydro-1H-indol-3-yl]carboxamide] | 1 to 10 | + (10-<25) | + (10-<25) |
| CCOc1ncccc1C1(OC(=O)N2CCN(C3CCN(C)CC3)CC2)C(=O)N(S(=O)(=O)c2ccc(OC)cc2OC)c2cc(F)c(C#N)cc21 (stereo not drawn) [Example 38, 5-Cyano-1-(2,4-dimethoxybenzenesulfonyl)-3-(2-ethoxypyridin-3-yl)-6-fluoro-2-oxo-2,3-dihydro-1H-indol-3-yl 4-(1-methylpiperidin-4-yl)piperazine-1-carboxylate] | < 1 | +++ (>75) | +++ (>75) |
| CCOc1ncccc1C1(OC(=O)N2CCN(C3CCN(C)CC3)CC2)C(=O)N(S(=O)(=O)c2ccccc2)c2cc(F)c(C#N)cc21 (stereo not drawn) [Example 40, 1-Phenylsulfonyl-5-cyano-3-(2-ethoxypyridin-3-yl)-6-fluoro-2-oxo-2,3-dihydro-1H-indol-3-yl 4-(1-methylpiperidin-4-yl)piperazine-1-carboxylate] | 1 to 10 | +++ (>75) | + (10-<25) |
| CCOc1ncccc1C1(OC(=O)N2CCN(C3CCN(C)CC3)CC2)C(=O)N(S(=O)(=O)c2ccc(OC)cc2OC)c2cc(F)c(Cl)cc21 (stereo not drawn) [Example 41, 5-Chloro-1-(2,4-dimethoxyphenylsulfonyl)-3-(2-ethoxypyridin-3-yl)-6-fluoro-2-oxo-2,3-dihydro-1H-indol-3-yl 4-(1-methylpiperidin-4-yl)piperazine-1-carboxylate] | < 1 | + (10-<25) | + (10-<25) |
| CCOc1ncccc1C1(OC(=O)N2CCN(C3CCN(C)CC3)CC2)C(=O)N(S(=O)(=O)c2ccccc2OC)c2cc(F)c(Cl)cc21 (stereo not drawn) [Example 43, 5-Chloro-3-(2-ethoxypyridin-3-yl)-6-fluoro-1-(2-methoxyphenylsulfonyl)-2-oxo-2,3-dihydro-1H-indol-3-yl 4-(1-methylpiperidin-4-yl)piperazine-1-carboxylate] | < 1 | +++ (>75) | ++ (25-75) |
| CCOc1ncccc1C1(OC(=O)N2CCN(C3CCN(C)CC3)CC2)C(=O)N(S(=O)(=O)c2ccc(OC)cc2OC)c2cc(Cl)c(F)cc21 (stereo not drawn) [Example 46, 6-Chloro-1-(2,4-dimethoxyphenylsulfonyl)-3-(2-ethoxypyridin-3-yl)-5-fluoro-2-oxo-2,3-dihydro-1H-indol-3-yl 4-(1-methylpiperidin-4-yl)piperazine-1-carboxylate] | 1 to 10 | + (10-<25) | ++ (25-75) |
| CCOc1ncccc1C1(OC(=O)N2CCN(C3CCN(C)CC3)CC2)C(=O)N(S(=O)(=O)c2ccccc2OC)c2cc(Cl)c(F)cc21 (stereo not drawn) [Example 50, 6-Chloro-3-(2-ethoxypyridin-3-yl)-5-fluoro-1-(2-methoxyphenylsulfonyl)-2-oxo-2,3-dihydro-1H-indol-3-yl 4-(1-methylpiperidin-4-yl)piperazine-1-carboxylate] | 10 to 100 | ++ (25-75) | + (10-<25) |

Next, values leading:

| Ki [1] [nM] | Ki(h − OT)/Ki(h − V1b)* [2] | Ki(h − V1a)/Ki(h − V1b)* [3] | Compound |
| --- | --- | --- | --- |
| < 1 | +++ (>75) | ++ (25-75) | CCOc1ncccc1C1(OC(=O)N2CCN(C3CCN(C)CC3)CC2)C(=O)N(S(=O)(=O)c2ccc(OC)cc2)c2cc(F)c(C#N)cc21 (stereo not drawn) [Example 39, 5-Cyano-3-(2-ethoxypyridin-3-yl)-6-fluoro-1-(4-methoxyphenylsulfonyl)-2-oxo-2,3-dihydro-1H-indol-3-yl 4-(1-methylpiperidin-4-yl)piperazine-1-carboxylate] |
| < 1 | + (10-<25) | + (10-<25) | CCOc1ncccc1C1(OC(=O)N2CCN(C3CCN(C)CC3)CC2)C(=O)N(S(=O)(=O)c2ccc(OC)cc2)c2cc(F)c(Cl)cc21 (stereo not drawn) [Example 42, 5-Chloro-3-(2-ethoxypyridin-3-yl)-6-fluoro-1-(4-methoxyphenylsulfonyl)-2-oxo-2,3-dihydro-1H-indol-3-yl 4-(1-methylpiperidin-4-yl)piperazine-1-carboxylate] |
| 1 to 10 | +++ (>75) | + (10-<25) | CCOc1ncccc1C1(OC(=O)N2CCN(C3CCN(C)CC3)CC2)C(=O)N(S(=O)(=O)c2ccccc2)c2cc(F)c(Cl)cc21 (stereo not drawn) [Example 45, 1-Phenylsulfonyl-5-chloro-3-(2-ethoxypyridin-3-yl)-6-fluoro-2-oxo-2,3-dihydro-1H-indol-3-yl 4-(1-methylpiperidin-4-yl)piperazine-1-carboxylate] |
| 1 to 10 | ++ (25-75) | +++ (>75) | CCOc1ncccc1C1(OC(=O)N2CCN(C3CCN(C)CC3)CC2)C(=O)N(S(=O)(=O)c2ccc(OC)cc2OC)c2cc(F)c(F)cc21 (stereo not drawn) [Example 51, 1-(2,4-dimethoxyphenylsulfonyl)-3-(2-ethoxypyridin-3-yl)-5,6-difluoro-2-oxo-2,3-dihydro-1H-indol-3-yl 4-(1-methylpiperidin-4-yl)piperazine-1-carboxylate] |
| 1 to 10 | + (10-<25) | ++ (25-75) | CCOc1ncccc1C1(OC(=O)N2CCN(C3CCN(C)CC3)CC2)C(=O)N(S(=O)(=O)c2ccc(OC)cc2)c2cc(F)c(F)cc21 (stereo not drawn) [Example 52, 3-(2-Ethoxypyridin-3-yl)-5,6-difluoro-1-(4-methoxyphenylsulfonyl)-2-oxo-2,3-dihydro-1H-indol-3-yl 4-(1-methylpiperidin-4-yl)piperazine-1-carboxylate] |
| 1 to 10 | ++ (25-75) | ++ (25-75) | CCOc1ncccc1C1(OC(=O)N2CCN(C3CCN(C)CC3)CC2)C(=O)N(S(=O)(=O)c2ccccc2OC)c2cc(F)c(F)cc21 (stereo not drawn) [Example 53, 3-(2-Ethoxypyridin-3-yl)-5,6-difluoro-1-(2-methoxyphenylsulfonyl)-2-oxo-2,3-dihydro-1H-indol-3-yl 4-(1-methylpiperidin-4-yl)piperazine-1-carboxylate] |
